Reference: patent publication US6949352B2, “Serine-threonine phosphatase protein of a parasitic organism of the Apicomplexa phylum, applications in therapeutics” (Centre National de la Recherche Scientifique (CNRS), priority 2001, dated 2005)

B1: Thioredoxin-Hispatch Tg PP2C (protein)
chain: MKSSAEIRRTMDVPPTIHVPLPPTSYPAFDAAIFTDIGGRKHQEDRFTLCPQLVPGRDDCAFFGVFDGTVGDFASENVKDLVVPQLISSPAWQEVTEMLRSDVPATEVDEKLPQLLDQAVDDMYKNADNELVKMCEQLNKDYASSTSVTAVLAKGFVAVGHLGDSRIAMGVETPNGLNCEFLTVDHKPDMPHEKLRIMRNGGSVEYLHNHNNKPFIRGGDFSFRKSRGEQPMQLQYSRALGGKDLKMYGLSNQPDVRVVRVTPQHRVMILATDGLWDVMFAAQAVEIAMQARQEGRNPAQALVEMTLAEQQSRNQSADNITAMTVFFKKTD

Legend:
[1] = tested on: parasite kinase activity which phosphorylates Toxofilin; test: Kinase reaction on rToxofilin with tachyzoïte cytosolic fraction, with pharmacological inhibitors; assay type: biochemical, Toxoplasma gondii; details: inhibitors added 15 min before starting the kinase reaction: heparin 20 μg per ml, GTP 200 μM, DRB 100 μM, [γ32P] ATP, 30° C.
Procedure: Kinase reaction: 2 μg of immobilized rToxofilin on protein G-dynabeads were washed in kinase buffer before to be incubated with a tachyzoïte cytosolic fraction prepared in kinase buffer ([…]) and precleared on protein G-dynabeads. The reaction was started by adding 100 μM of Na2 ATP and 10 μCi of [γ^32P] ATP (3000 Ci/mmol, NEN life science product, Inc) (15 min, 30° C.). Unbound materials and unincorporated [γ^32P] ATP were washed out with 200 volumes of kinase buffer containing with TX-100 (0.5% vol/vol) followed by 100 volumes of kinase buffer. Toxofilin and bound proteins were eluted in SDS-PAGE sample buffer prior to electrophoresis and radioactivity scan (phosphoimager, Molecular Dynamics). Toxofilin phosphorylation was quantified using NIH Image Quant software.
To characterize the kinase activity responsible for Toxofilin phosphorylation, three types of experiments were carried out:
1) Pharmacological inhibitors such as heparin (20 μg per ml, Sigma), GTP (200 μM, Sigma), 5,6-dichloro-1-B-D-ribofuranosylbenzimidazole (100 μM, Calbiochem) or staurosporine (1 μM, Calbiochem) were added 15 min before starting the kinase reaction.

[2] = tested on: recombinant Toxofilin (r-Toxofilin) without GST
[3] = target: recombinant Toxofilin (r-Toxofilin) without GST; remark: listed apart in the source

Row | Molecule | inhibition of the parasite kinase activity which phosphorylates Toxofilin [1] | other results
1 | OC[C@H]1O[C@@H](n2cnc3cc(Cl)c(Cl)cc32)[C@H](O)[C@@H]1O [DRB, 5,6-dichloro-1-B-D-ribofuranosylbenzimidazole] | inhibited | 
2 | Nc1nc2c(ncn2[C@@H]2O[C@H](COP(=O)(O)OP(=O)(O)OP(=O)(O)O)[C@@H](O)[C@H]2O)c(=O)[nH]1 [GTP] | inhibited | 
3 | Human casein kinase II |  | phosphorylation of Toxofilin [2]: Human casein kinase II works well at phosphorylating Toxofilin
4 | heparin [soluble heparin] | inhibited | 
5 | B1 |  | in vitro phosphatase assay on 32P-phosphorylated Toxofilin [3]: Toxofilin is a major substrate for type 2C phosphatase
